Source: patent US20250154157A1, “HETEROCYCLIC COMPOUNDS USEFUL FOR TREATING A ERK5-MEDIATED DISEASE” (Cancer Research Technology Limited, priority 2022, published 2025)

Key:
Type in all cases: cell-based
[1] = test system: EMT, angiogenesis and pro-tumour inflammation genes (N-cadherin, cytokeratin, B1-integrin, VEGF, IL6, IL1b, E-cadherin); experiment: qRT-PCR, mRNA levels of EMT, angiogenesis and inflammatory regulators in TNBC cell lines (FIG. 11)
Description: qRT-PCR: Total RNA was isolated from cells using TRIZOL and/or the miRNeasy mini kit (Qiagen). We carried out cDNA synthesis as previously described by Green, D., Eyre, H., Singh, A. et al (Targeting the MAPK7/MMP9 axis for metastasis in primary bone cancer. Oncogene 39, 5553-5569 (2020)). We performed qPCR using the SYBR Green I core kit (Eurogentec). PCR products were detected in the ABI PRISM® 7700 sequence detection system (Thermo Fisher Scientific). We analysed results using the […]. Gene expression was normalised to PGK1 or ACTB.
Relative mRNA levels, compared to internal control PGK1 or ACTB, in three triple negative breast cancer cell lines: MDA-MB-231, MDA-MB-468 and SUM159.

[2] = test system: TNBC cells (MDA-MB-231, MDA-MB-468 and SUM159); experiment: Immunofluorescence, morphology of TNBC cells (FIG. 10); conditions: 1 μM OS1 or 2.5 μM AX15836; MDA-MB-231, MDA-MB-468, SUM159
Experimental: (§1) Cells were seeded and treated. Media was aspirated, cells were washed with PBS and subsequently fixed in 10% formalin for 10 minutes. Fixed cells were washed in PBS and then permeablised with 0.1% (v/v) Triton-100 in PBS for 10 minutes. Cells were washed with PBS and the non-specific binding sites were blocked by incubating with 1% BSA for 30 minutes. Targets of interested were identified by incubating with 100 μl of primary antibody diluted in 1% BSA (see table) overnight at 4° C. After washing with PBS, samples were further incubated with species specific secondary antibody coupled to fluorescent tags (see antibody table) for 1 hour in the dark at room temperature. Some samples were further incubated with 100 μl of 1:200 phalloidin (Invitrogen, A12381) in 1% BSA for 2 hours at room temperature to identify actin filament structures. The EZ-slides casing was dismantled as described in manufacturer's instruction and slides were washed in distilled H2O. Samples were incubated with one drop of Mounting Medium with DAPI (abcam) for 5 minutes in the dark at room temperature to visualise the nuclei. A coverslip was added to each slide and allowed to dry at room temperature. Images were acquired on a 3D-Histech Pannoramic-250 microscope slide-scanner using a 20×/0.80 Plan Apochromat objective (Zeiss) and the DAPI, FITC and TRITC filter sets. […] Images were then processed and analysed using ImageJ. […]

p-ERK5 = biological target: T1, p-ERK5 (Homo sapiens, UniProt Q13164); experiment: Immunoblotting in 3 TNBC cell lines (FIG. 8): phospho-ERK5 levels; conditions: at higher doses
T1 construct: endogenous in cells; host or cells: MDA-MB-231, MDA-MB-468, SUM159
T1 sequence (Q13164 whole entry): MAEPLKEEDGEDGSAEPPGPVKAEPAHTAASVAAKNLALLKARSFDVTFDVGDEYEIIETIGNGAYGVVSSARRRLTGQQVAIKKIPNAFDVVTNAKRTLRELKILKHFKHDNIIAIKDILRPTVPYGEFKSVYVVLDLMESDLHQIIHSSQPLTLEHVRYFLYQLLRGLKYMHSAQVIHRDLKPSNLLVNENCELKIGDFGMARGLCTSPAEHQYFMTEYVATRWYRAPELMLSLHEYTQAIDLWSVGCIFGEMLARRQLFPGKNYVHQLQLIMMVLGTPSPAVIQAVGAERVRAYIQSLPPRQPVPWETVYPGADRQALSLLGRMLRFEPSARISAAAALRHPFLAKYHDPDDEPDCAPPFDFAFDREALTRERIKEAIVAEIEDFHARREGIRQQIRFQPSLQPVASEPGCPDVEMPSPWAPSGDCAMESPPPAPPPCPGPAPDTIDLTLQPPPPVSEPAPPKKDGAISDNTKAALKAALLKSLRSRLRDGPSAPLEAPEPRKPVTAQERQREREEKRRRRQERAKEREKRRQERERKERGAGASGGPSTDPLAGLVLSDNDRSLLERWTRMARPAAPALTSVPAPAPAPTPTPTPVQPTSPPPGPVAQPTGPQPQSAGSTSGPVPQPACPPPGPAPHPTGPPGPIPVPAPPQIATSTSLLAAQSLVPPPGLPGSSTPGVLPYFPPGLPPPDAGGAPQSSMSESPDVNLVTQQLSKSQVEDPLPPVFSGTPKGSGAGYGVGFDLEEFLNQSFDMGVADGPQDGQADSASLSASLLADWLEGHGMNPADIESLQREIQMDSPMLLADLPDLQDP
Experimental: (§2) We extracted proteins in RIPA assay buffer containing protease and phosphatase inhibitors. We resolved extracts (30 μg) by SDS/PAGE and electrophoretically transferred to an Immun-Blot® PVDF membrane (Bio-Rad). Membranes were saturated in 3% non-fat dry milk or 3% BSA and probed overnight at 4° C. with antibodies (1:1,000 dilution unless otherwise indicated) to ERK5, P-ERK5, ERK1/2, BRD4, MEK5 and β-actin. We detected immunocomplexes by enhanced chemiluminescence with IgG coupled to horseradish peroxidase as the secondary anti-rabbit and anti-mouse antibodies (Abcam).
(§3) Left hand side panels are Western blot images, showing the relative expression of proteins in response to a range of doses of OS1. Right hand side panels are graphs quantifying the western blot images to show ERK5, phospho-ERK5, ERK1/2 and BRD4 protein levels relative to the loading control β-actin.

MEK5 = biological target: T2, MEK5 (Homo sapiens, UniProt Q13163); experiment: Repeated dosing of OS1 up to 2 weeks, immunoblotting (FIG. 9): MEK5; conditions: 1 μM every 48 h for up to two weeks, TNBC cell lines
T2 construct: endogenous in cells; host or cells: MDA-MB-231, MDA-MB-468, SUM159
T2 sequence (Q13163 1-448): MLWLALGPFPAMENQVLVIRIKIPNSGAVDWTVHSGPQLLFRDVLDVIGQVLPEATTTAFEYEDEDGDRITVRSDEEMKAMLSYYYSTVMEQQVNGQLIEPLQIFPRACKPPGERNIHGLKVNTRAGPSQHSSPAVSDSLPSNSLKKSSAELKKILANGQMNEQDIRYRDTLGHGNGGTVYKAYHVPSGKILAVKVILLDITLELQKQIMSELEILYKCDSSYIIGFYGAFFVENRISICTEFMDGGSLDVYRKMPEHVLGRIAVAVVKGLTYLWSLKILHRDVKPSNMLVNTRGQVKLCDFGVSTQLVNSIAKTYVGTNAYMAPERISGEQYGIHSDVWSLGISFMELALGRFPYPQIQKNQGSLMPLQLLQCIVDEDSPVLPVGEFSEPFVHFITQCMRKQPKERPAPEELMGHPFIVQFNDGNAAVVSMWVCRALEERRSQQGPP
Experimental: as §2, with “ERK5,” for “ERK5, P-ERK5, ERK1/2,”

ERK1/2 [3] = experiment: Repeated dosing of OS1 up to 2 weeks, immunoblotting (FIG. 9): ERK1/2; conditions: 1 μM every 48 h for up to two weeks, TNBC cell lines
BRD4 [4] = biological target: T3, BRD4 (Homo sapiens, UniProt O60885); experiment: Immunoblotting, comparison with Example 7 of WO2021061894 in MDA-MB-468 cells (FIGS. 12 and 13): BRD4; design: endogenous in cells; host or cells: MDA-MB-231, MDA-MB-468, SUM159; conditions: 48 hours after a single dose, Comparative Example 7 at 5 μM
Experimental: as §2, with “ERK5,” for “ERK5, P-ERK5, ERK1/2,”
(§4) OS1 and OS11 degrade EKR5 at lower concentrations than Comparative Example 7. OS1 is efficacious at degrading ERK5 at doses of 0.1 μM and OS11 at 0.01 μM. In contrast, a dose of 5 μM of Comparative Example 7 is required to achieve analogous ERK5 degradation to 0.1 μM OS1 or 0.01 μM OS11.

BRD4 [5] = biological target: T3, BRD4; experiment: Repeated dosing of OS1 up to 2 weeks, immunoblotting (FIG. 9): BRD4; design: endogenous in cells; conditions: 1 μM every 48 h for up to two weeks, TNBC cell lines
Experimental: as §2, with “ERK5,” for “ERK5, P-ERK5, ERK1/2,”

BRD4 [6] = biological target: T3, BRD4; experiment: Immunoblotting, specificity testing in 3 TNBC cell lines (FIG. 8): BRD4 levels; design: endogenous in cells; conditions: range of doses
Experimental: as §2, §3

ERK5 [7] = biological target: T4, ERK5 (Homo sapiens, UniProt Q13164); experiment: Immunoblotting, comparison with Example 7 of WO2021061894 in MDA-MB-468 cells (FIGS. 12 and 13): ERK5; design: endogenous in cells; host or cells: MDA-MB-468; conditions: 48 hours after a single dose, relative to b-actin
T4 sequence (Q13164 whole entry): as the sequence (Q13164 whole entry) above
Experimental: as §2, with “ERK5,” for “ERK5, P-ERK5, ERK1/2,”
as §4

ERK5 [8] = biological target: T4, ERK5; experiment: Immunoblotting, 8 point dose response to OS1 in 3 TNBC cell lines (FIG. 8): ERK5 levels; design: endogenous in cells; host or cells: MDA-MB-231, MDA-MB-468, SUM159
Experimental: as §2, §3

ERK5 [9] = biological target: T4, ERK5; experiment: Immunofluorescence, ERK5 staining in TNBC cells (FIG. 10); design: endogenous in cells; host or cells: MDA-MB-231, MDA-MB-468, SUM159; conditions: 1 μM OS1, TNBC cell lines
Experimental: as §1

ERK1/2 [10] = experiment: Immunoblotting, specificity testing in 3 TNBC cell lines (FIG. 8): ERK1/2 levels; conditions: range of doses
Experimental: as §2, §3

[11] = 24 h treatment, mRNA relative to PGK1 or ACTB, three TNBC cell lines

Structure (SMILES): CCOc1cc(C(=O)N2CCC(N3CCN(C)CC3)CC2)ccc1Nc1ncc2c(n1)N(S(C)(=O)=O)c1ccccc1C(=O)N2C [AX15836, 5,11-Dihydro-2-[[2-ethoxy-4-[[4-(4-methyl-1-piperazinyl)-1-piperidinyl]carbonyl]phenyl]amino]-5-methyl,11-(methylsulfonyl)-6H-pyrimido[4,5-b][1,4]benzodiazepin-6-one, reference compound]
- expression of genes that promote EMT, migration and metastatic behaviour (N-cadherin, cytokeratin, B1-integrin), angiogenesis (VEGF) and pro-tumour inflammation (IL6, IL1b) [1, 11]: not
- effect on morphology of TNBC cells [2]: does not

Structure (SMILES): CCOc1cc(C(=O)N2CCC(N3CCN(CCCCCc4cccc5c4C(=O)N(C4CCC(=O)NC4=O)C5=O)CC3)CC2)ccc1Nc1ncc2c(n1)N(S(C)(=O)=O)c1ccccc1C(=O)N2C (stereo not drawn) [OS1, 2-(2,6-Dioxopiperidin-3-yl)-4-(5-(4-(1-(3-ethoxy-4-((5-methyl-11-(methylsulfonyl)-6-oxo-6,11-dihydro-5H-benzo[e]pyrimido[5,4-b][1,4]diazepin-2-yl)amino)benzoyl)piperidin-4-yl)piperazin-1-yl)pentyl)isoindoline-1,3-dione]
- kinase inhibitor activity (p-ERK5 on immunoblot) (p-ERK5): reduction in p-ERK5
- dose most effective in affecting gene expression ([1]; 0.1 or 1 μM tested, 24 h): 1 µM
- expression of genes that block EMT, migration and metastatic behaviour (E-cadherin) [1, 11]: increase in expression
- expression of genes that promote EMT, migration and metastatic behaviour (N-cadherin, cytokeratin, B1-integrin), angiogenesis (VEGF) and pro-tumour inflammation (IL6, IL1b) [1, 11]: induces a loss of expression
- effect of repeated dosing on MEK5 (MEK5): unaffected
- effect of repeated dosing on ERK1/2 (ERK1/2 [3]): no effect
- degradation of off-target BRD4 (BRD4 [4]): do not cause degradation
- effect of repeated dosing on BRD4 (BRD4 [5]): no effect
- effect on morphology of TNBC cells [2]: affects morphology
- off target effects on known off-target of literature ERK5 inhibitors (BRD4) (BRD4 [6]): no off target effects
- dose efficacious at degrading ERK5 (analogous ERK5 degradation) (ERK5 [7]): 0.1 μM
- dose inducing the hook effect (ERK5 [8]; TNBC cell lines): 10 µM
- most effective dose for ERK5 degradation (ERK5 [8]; TNBC cell lines): 1 µM
- ERK5 degraded (ERK5 [8]; range of TNBC cell lines (MDA-MB-231, MDA-MB-468, SUM159), western blot relative to β-actin): > 90%
- ERK5 staining (green), immunofluorescence (ERK5 [9]): loss of ERK5 staining
- off target effects on structurally similar proteins (ERK1/2) (ERK1/2 [10]): no off target effects
